Experiments:
[1] = tested on: tumors from the tumor cell lines of Table 9; experiment: Mean tumor volume in nude mice injected subcutaneously with human tumor cells; details: 30 mg/kg/day oral, 7 days
[2] = tested on: fibroblasts (PHF) co-cultured with tumor cells of human colon adenocarcinoma (SW-403); experiment: Marker expression (IHC) in PHF co-cultured with SW-403 tumor cells; assay type: cell-based; details: co-culture with SW-403; SP 1 μM + antagonist 1 μM; 48 h
Description: All cultures were maintained 48 hours, following which the same cells were included in paraffin blocks for subsequent analysis of the expression of different markers by immunohistochemistry (see Example 1). The primary antibodies used to perform immunohistochemical assays and their concentration are detailed in Example 2. All experiments were carried out sixfold. Analyzed markers in fibroblast cells (stromal cells) were: TGF-α, TGF-β1, TGF-β2, TGF-β3, SPARC, MMP-3, MMP-7, MMP-9, MMP-11, MMP-13 and MMP-14.

[3] = tested on: fibroblasts (PHF) co-cultivated with tumor cell carcinoma of urinary bladder (5637); experiment: Marker expression (IHC) in PHF co-cultured with 5637 tumor cells; assay type: cell-based, human; details: co-culture with 5637; SP 1 μM + antagonist 1 μM; 48 h
Description: (§1) All cultures were maintained 48 hours, following which the same cells were included in paraffin blocks for subsequent analysis of the expression of different markers by immunohistochemistry (see Example 1). […] All experiments were carried out sixfold. Analyzed markers in fibroblast cells (stromal cells) were: TGF-α, TGF-β1, TGF-β2, TGF-β3, SPARC, MMP-3, MMP-7, MMP-9, MMP-11, MMP-13 and MMP-14.

[4] = tested on: fibroblasts (PHF) co-cultured with tumor cells of human Edwing sarcoma (MHH-ES-1); experiment: Marker expression (IHC) in PHF co-cultured with MHH-ES-1 tumor cells; assay type: cell-based; details: PHF co-cultured with MHH-ES-1 + SP + NK1 antagonist
Description: as §1

[5] = tested on: fibroblasts (PHF) co-cultured with tumor cells of lung carcinoma (A-427); experiment: Marker expression (IHC) in PHF co-cultured with A-427 tumor cells; assay type: cell-based, human; details: co-culture with A-427 lung carcinoma; SP 1 μM + antagonist 1 μM; 48 h;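 also: cultures grown in human blood plasma from a healthy donor, value is the percentage of fibroblasts positive for each marker, six replicates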
Description: as §1

[6] = tested on: human primary fibroblasts (PHF); experiment: Marker expression (immunohistochemistry) in human primary fibroblasts with SP alone or with NK1 antagonists; assay type: cell-based; details: SP 1 μM + antagonist 1 μM; 48 h;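 also: primary human dermal fibroblasts, immunostained with rabbit polyclonal antibodies against each marker, value is percentage of stained cells among all cells counted in 20 fields at 400× per section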
Description: These PHF were obtained and purified from samples obtained from the dermis of the skin of healthy volunteers as described in De Bari et al (De Bari et al. 2001). Briefly, small pieces of skin dermis were digested in a solution of hyaluronidase (Sigma-Aldrich, USA) at a concentration of 1 mg/ml for 15 minutes at 37° C. and then treated with 6 mg/ml collagenase type IV (Invitrogen) for 2 hours at 37° C. Then, the cells were washed, resuspended in DMEM culture medium with high glucose (Dulbecco's Modified Eagle's Medium, Invitrogen) supplemented with 1% antibiotic-antimycotic (Invitrogen) and 1% pyruvate Sodium (Invitrogen), and seeded in culture dishes at a concentration of 10,000 cells per square centimeter. When the cells reached confluence, adherent cells were detached using 0.5% sterile trypsin (Invitrogen) and used between passages 3 and 9. For tests shown below, the PHF were plated in 24-well plates at a concentration of 25,000 cells per well.
After 48 hours of culture, cells were harvested and paraffin cell-blocks for immunohistochemical analysis were constructed, as previously explained in Example 1.
In immunohistochemical assays the expression of the following markers were studied: TGFα (SAB4502953), TGF1 (SAB4502954), TGFβ2 (SAB4502956), TGFβ3 (SAB4502957), SPARC (HPA002989), MMP-3 (HPA007875) MMP-7 (SAB4501894), MMP-9 (SAB4501896), MMP-11 (SAB4501898), MMP-13 (SAB4501900) and MMP-14 (SAB4501901) using specific antibodies against them. All antibodies used were rabbit polyclonal antibodies obtained from Sigma-Aldrich and were used at a concentration of 1/1000. All experiments were carried out sixfold.
On each of the six sections cell counts were performed in 20 high power fields (400×) through an Olympus microscope (model CX31) to assess the immunostaining. On each of the fields total cell number and number of cells displaying immunostaining were counted, being then the percentage of cells displaying said immunostaining.

[7] = tested on: fibroblasts (PHF) co-cultured with tumor cells of human breast carcinoma (MCF-7); experiment: Marker expression (IHC) in PHF co-cultured with MCF-7 tumor cells; assay type: cell-based; details: co-culture with MCF-7; SP 1 μM + antagonist 1 μM; 48 h;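 also: value is the percentage of fibroblasts positive for each marker, with fibroblasts cultured alone as reference, grown in fresh plasma from a healthy donor, six replicates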
Description: as §1

[8] = tested on: fibroblasts (PHF) co-cultured with tumor cells, thyroid carcinoma (reference A-427); experiment: Marker expression (IHC) in PHF co-cultured with thyroid carcinoma tumor cells; assay type: cell-based, human; details: co-culture with thyroid carcinoma cells; SP 1 μM + antagonist 1 μM; 48 h;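 also: grown in fresh plasma from a healthy human donor, read-out is percent of fibroblasts positive for each marker, compared with fibroblasts cultured alone, run in six replicates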
Description: as §1

[9] = tested on: fibroblasts (PHF) co-cultured with tumor cells, thyroid carcinoma; experiment: as above; assay type: cell-based, human; details: co-culture with thyroid carcinoma cells; SP 1 μM + antagonist 1 μM; 48 h
Description: as §1

Cc1cc(F)ccc1[C@H]1CNCCN1C(=O)N(C)[C@H](C)c1cc(C(F)(F)F)cc(C(F)(F)F)c1 [Vestipitant]
Mean tumor volume ([1]; B lymphoblastic leukemia (peripheral human B lymphoblastoid cells) SD1): 112 ± 8
Mean tumor volume ([1]; Carcinoma of human non-small cell lung COR-L23): 111 ± 3
Mean tumor volume ([1]; Carcinoma of human non-small cell lung H-1963): 101 ± 6
Mean tumor volume ([1]; Carcinoma of human non-small cell lung HCC-44): 100 ± 4
Mean tumor volume ([1]; Carcinoma of human small cell lung H-209): 113 ± 5
Mean tumor volume ([1]; Carcinoma of human urinary bladder 5637): 112 ± 3
Mean tumor volume ([1]; Human B lymphoma BC-1): 101 ± 9
Mean tumor volume ([1]; Human Burkitt lymphoma CA-46): 100 ± 19
Mean tumor volume ([1]; Human Fibrosarcoma HT-1080): 112 ± 4
Mean tumor volume ([1]; Human Hodgkin lymphoma KM-H2): 99 ± 8
Mean tumor volume ([1]; Human Rhabdomyosarcoma A-204): 97 ± 9
Mean tumor volume ([1]; Human T-cell leukemia/NK YT): 101 ± 3
Mean tumor volume ([1]; Human T-lymphoma DERL human Hodgkin 7Linfoma KM-H2): 90 ± 9
Mean tumor volume ([1]; Human breast adenocarcinoma humano MCF-7): 78 ± 7
Mean tumor volume ([1]; Human breast carcinoma MDA-MB-468): 84 ± 7
Mean tumor volume ([1]; Human breast carcinoma MT-3): 78 ± 8
Mean tumor volume ([1]; Human choriocarcinoma AC-1M32): 88 ± 8
Mean tumor volume ([1]; Human colon carcinoma SW-403): 78 ± 2
Mean tumor volume ([1]; Human endometrial carcinoma AN3-CA): 89 ± 1
Mean tumor volume ([1]; Human endometrial stromal sarcoma ESS-1): 99 ± 3
Mean tumor volume ([1]; Human folicular thyroid carcinoma TT2609-C02): 100 ± 4
Mean tumor volume ([1]; Human gastric adenocarcinoma 23132/87): 63 ± 8
Mean tumor volume ([1]; Human glioma GAMG): 101 ± 4
Mean tumor volume ([1]; Human lung carcinoma A-427): 98 ± 10
Mean tumor volume ([1]; Human lung carcinoma DV-90): 136 ± 10
Mean tumor volume ([1]; Human lymphoblastic leukemia T BE-13): 111 ± 4
Mean tumor volume ([1]; Human malignant fibrous histiocytoma U-2197): 95 ± 8
Mean tumor volume ([1]; Human melanoma MEL HO): 102 ± 4
Mean tumor volume ([1]; Human multiple myeloma COLO-677): 101 ± 4
Mean tumor volume ([1]; Human neuroblastoma KELLY): 121 ± 4
Mean tumor volume ([1]; Human neuroblastoma bone marrow SKN-BE 2): 101 ± 7
Mean tumor volume ([1]; Human osteosarcoma CAL-72): 104 ± 9
Mean tumor volume ([1]; Human ovarian adenocarcinoma EFO-27): 63 ± 7
Mean tumor volume ([1]; Human ovarian carcinoma COLO-704): 78 ± 8
Mean tumor volume ([1]; Human pancretic adenocarcinoma CAPAN-1): 85 ± 8
Mean tumor volume ([1]; Human pancretic adenocarcinoma PA-TU 8902): 91 ± 6
Mean tumor volume ([1]; Human papillary thyroid carcinoma metastasizing B-CPAP): 102 ± 2
Mean tumor volume ([1]; Human prostate carcinoma 22RV1): 98 ± 2
Mean tumor volume ([1]; Human retinoblastoma WERI-Rb-1): 112 ± 8
Mean tumor volume ([1]; Human thyroid carcinoma 8505C): 98 ± 9
Mean tumor volume ([1]; Human uterine cervix carcinoma KB): 89 ± 1
Mean tumor volume ([1]; Melanoma humano, metástasis en ganglio linfático COLO 858): 110 ± 4
Mean tumor volume ([1]; Sarcoma human Edwing MHH-ES-1): 115 ± 3
Mean tumor volume ([1]; Transitional Carcinoma of human urinary bladder RT-4): 120 ± 3
PHF cells expressing MMP-3 [2]: 0%
PHF cells expressing MMP-7 [2]: 0%
PHF cells expressing MMP-9 [2]: 0%
PHF cells expressing MMP-11 [2]: 0%
PHF cells expressing MMP-13 [2]: 0%
PHF cells expressing MMP-14 [2]: 0%
PHF cells expressing SPARC [2]: 0%
PHF cells expressing TGF-α [2]: 0%
PHF cells expressing TGF-β1 [2]: 0%
PHF cells expressing TGF-β2 [2]: 0%
PHF cells expressing TGF-β3 [2]: 0%
PHF cells expressing MMP-3 [3]: 0%
PHF cells expressing MMP-7 [3]: 0%
PHF cells expressing MMP-9 [3]: 0%
PHF cells expressing MMP-11 [3]: 0%
PHF cells expressing MMP-13 [3]: 0%
PHF cells expressing MMP-14 [3]: 0%
PHF cells expressing SPARC [3]: 0%
PHF cells expressing TGF-α [3]: 0%
PHF cells expressing TGF-β1 [3]: 0%
PHF cells expressing TGF-β2 [3]: 0%
PHF cells expressing TGF-β3 [3]: 0%
cells expressing MMP-3 [4]: 0%
cells expressing MMP-7 [4]: 0%
cells expressing MMP-9 [4]: 0%
cells expressing MMP-11 [4]: 0%
cells expressing MMP-13 [4]: 0%
cells expressing MMP-14 [4]: 0%
cells expressing SPARC [4]: 0%
cells expressing TGF-α [4]: 0%
cells expressing TGF-β1 [4]: 0%
cells expressing TGF-β2 [4]: 0%
cells expressing TGF-β3 [4]: 0%
PHF cells expressing MMP-3 [5]: 0%
PHF cells expressing MMP-7 [5]: 0%
PHF cells expressing MMP-9 [5]: 0%
PHF cells expressing MMP-11 [5]: 0%
PHF cells expressing MMP-13 [5]: 0%
PHF cells expressing MMP-14 [5]: 0%
PHF cells expressing SPARC [5]: 0%
PHF cells expressing TGF-α [5]: 0%
PHF cells expressing TGF-β1 [5]: 0%
PHF cells expressing TGF-β2 [5]: 0%
PHF cells expressing TGF-β3 [5]: 0%
PHF cells expressing MMP-3 [6]: 0%
PHF cells expressing MMP-7 [6]: 0%
PHF cells expressing MMP-9 [6]: 0%
PHF cells expressing MMP-11 [6]: 0%
PHF cells expressing MMP-13 [6]: 0%
PHF cells expressing MMP-14 [6]: 0%
PHF cells expressing SPARC [6]: 0%
PHF cells expressing TGFα [6]: 0%
PHF cells expressing TGFβ 1 [6]: 0%
PHF cells expressing TGFβ 2 [6]: 0%
PHF cells expressing TGFβ 3 [6]: 0%
PHF cells expressing MMP-3 [7]: 0%
PHF cells expressing MMP-7 [7]: 0%
PHF cells expressing MMP-9 [7]: 0%
PHF cells expressing MMP-11 [7]: 0%
PHF cells expressing MMP-13 [7]: 0%
PHF cells expressing MMP-14 [7]: 0%
PHF cells expressing SPARC [7]: 0%
PHF cells expressing TGF-α [7]: 0%
PHF cells expressing TGF-β1 [7]: 0%
PHF cells expressing TGF-β2 [7]: 0%
PHF cells expressing TGF-β3 [7]: 0%
PHF cells expressing MMP-3 [8]: 0%
PHF cells expressing MMP-7 [8]: 0%
PHF cells expressing MMP-9 [8]: 0%
PHF cells expressing MMP-13 [8]: 0%
PHF cells expressing MMP-14 [8]: 0%
PHF cells expressing SPARC [8]: 0%
PHF cells expressing TGF-α [8]: 0%
PHF cells expressing TGF-β1 [8]: 0%
PHF cells expressing TGF-β2 [8]: 0%
PHF cells expressing TGF-β3 [8]: 0%
PHF cells expressing MMP-11 [9]: 0%

From US20180071317A1, “USE OF AGENTS THAT ALTER THE PERITUMORAL ENVIRONMENT FOR THE TREATMENT OF CANCER” (SERVICIO ANDALUZ DE SALUD, priority 2011, published 2018)
